Tests used:
[1] = Solubility of metal piroctone complexes in 5 wt% aqueous SLES 1EO solution; type: physicochemical; settings: 1% sample in 5 wt% aqueous solution of SLES 1EO at 20° C.
Method: The solubility of metal piroctone complexes at 20° C. in a 5 wt% aqueous solution of SLES 1EO (sodium lauryl ether sulfate) Is listed in Table 1: […]

[2] = UV stability of ethanolic solutions; type: physicochemical; settings: 5 hours of UV irradiation (UVA 180 uW/cm2, UVB210 uW/cm2)
Method: The UV stability of an ethanolic solutions (0.5 mM) of copper piroctone and manganese piroctone were measured and compared with a solution of Octopirox 1 mM solution.

| SMILES | % Solubility [1] [%] | degraded after UV irradiation ([2]; ethanolic solution 0.5 mM) [%] | degraded after UV irradiation ([2]; 1 mM solution) [%] |
| --- | --- | --- | --- |
| Cc1cc(CC(C)CC(C)(C)C)n([O-])c(=O)c1.Cc1cc(CC(C)CC(C)(C)C)n([O-])c(=O)c1.[Cu+2] (stereo not shown) [1% Cu—PIR, Copper bis-piroctone] | 1.3 | 1.8 |  |
| Cc1cc(CC(C)CC(C)(C)C)n([O-])c(=O)c1.Cc1cc(CC(C)CC(C)(C)C)n([O-])c(=O)c1.[Mn+2] (stereo not shown) [1% Mn—PIR, Manganese bis-piroctone] | 1.0 | 3.2 |  |
| Cc1cc(CC(C)CC(C)(C)C)n([O-])c(=O)c1.Cc1cc(CC(C)CC(C)(C)C)n([O-])c(=O)c1.[Zn+2] (stereo not shown) [1% Zn—PIR, Zinc bis-piroctone, reference compound] | 111.8 |  |  |
| Cc1cc(CC(C)CC(C)(C)C)n(O)c(=O)c1.NCCO (stereo not shown) [1% OCT, piroctone olamine, reference compound] | 100.2 |  | 46 |

From US20230190611A1, “PERSONAL CARE COMPOSITIONS COMPRISING A METAL PIROCTONE COMPLEX” (Conopco, Inc., d/b/a UNILEVER, priority 2020, published 2023)
